Reference: EPA's ToxRefDB 2

What was measured:
rat [1] = conditions: Sub-acute repeat dose toxicity, sprague dawley, Oral, Gavage/Intubation, dose end: 4 week, group: systemic
rat [2] = conditions: Sub-acute repeat dose toxicity; long evans; Oral; Gavage/Intubation; dose end: 4 week; group: systemic; systemic / in life observation / body weight / body weight gain + systemic / in life observation / clinical signs / drooping eyelids (ptosis…
rabbit [3] = conditions: Prenatal developmental toxicity study, himalayan, Injection, Intravenous, dose end: 18 GD, group: maternal
rat [4] = conditions: Fertility (Segment I), wistar, Oral, Gavage/Intubation, dose end: 7 GD
rabbit [5] = conditions: Prenatal developmental toxicity study, himalayan, Oral, Gavage/Intubation, dose end: 18 GD
rabbit [6] = conditions: Prenatal developmental toxicity study, himalayan, Oral, Gavage/Intubation, dose end: 18 GD; remark: listed apart in the source
mouse = conditions: Combined chronic toxicity/carcinogenicity; other; Oral; Feed; dose end: 365 day; group: systemic; systemic / pathology gross / full gross necropsy / lymphoma malignant
rat [7] = conditions: Combined chronic toxicity/carcinogenicity; fischer; Oral; Feed; dose end: 365 day; group: systemic; systemic / in life observation / body weight / body weight
[8] = systemic / clinical chemistry / adrenocorticotropic hormone (acth) / adrenocorticotropic hormone (acth)
[9] = systemic / clinical chemistry / adrenocorticotropic hormone (acth) / adrenocorticotropic hormone (acth) + systemic / clinical chemistry / …
[10] = systemic / in life observation / body weight / body weight gain + systemic / in life observation / food consumption / food consumption + …
[11] = group: maternal, reproductive / reproductive performance / implantations / implantations + reproductive / reproductive performance / preimplantation loss / …
[12] = group: parental, systemic / in life observation / clinical signs / salivation + systemic / in life observation / clinical signs / tremors + systemic / in …
[13] = group: developmental, developmental / developmental malformation / bone / incomplete ossification + developmental / developmental malformation / bone / short + …
[14] = group: maternal, systemic / in life observation / clinical signs / motor activity + systemic / in life observation / mortality / mortality
[15] = group: developmental, developmental / developmental malformation / paw / digit / [other]
[16] = group: maternal, systemic / in life observation / body weight / body weight gain + systemic / in life observation / clinical signs / [other] + systemic / in …
[17] = group: maternal, systemic / in life observation / clinical signs / ataxia + systemic / in life observation / clinical signs / motor activity + systemic / in …

`COc1cccc([C@H](O)C2CCN(CCc3ccc(F)cc3)CC2)c1OC` [Volinanserin] was tested, and the LEL (rat [1]; [8]) was 12.5 mg/kg/day, the NEL (rat [1]; [8]) was less than 12.5 mg/kg/day and the LOAEL (rat [1]; [9]) was greater than 75 mg/kg/day. It also gave an NOAEL (rat [1]; [9]) of no less than 75 mg/kg/day, an LEL (rat [2]) of 150 mg/kg/day and an LOAEL (rat [2]) greater than 150 mg/kg/day. For the same compound, the NEL (rat [2]) was 50 mg/kg/day, the NOAEL (rat [2]) was no less than 150 mg/kg/day and the LEL (rabbit [3]; systemic / in life observation / body weight / body weight gain + systemic / in life observation / food consumption / food consumption) was 3 mg/kg/day. It also gave an LOAEL (rabbit [3]; [10]) greater than 4.5 mg/kg/day, an NEL (rabbit [3]; [10]) of 0.2 mg/kg/day and an NOAEL (rabbit [3]; [10]) of no less than 4.5 mg/kg/day. It also gave an LEL (rat [4]; [11]) of 200 mg/kg/day, an LOAEL (rat [4]; [11]) greater than 200 mg/kg/day and an NOAEL (rat [4]; [11]) of no less than 200 mg/kg/day. The NEL (rat [4]; [12]) was 20 mg/kg/day, the NOAEL (rat [4]; [12]) was 20 mg/kg/day and the LEL (rabbit [5]; [13]) was 40 mg/kg/day. The LOAEL (rabbit [5]; [13]) was greater than 40 mg/kg/day, the NEL (rabbit [5]; [13]) was 12.5 mg/kg/day and the NOAEL (rabbit [5]; [13]) was no less than 40 mg/kg/day. The LEL (rabbit [5]; [14]) was 40 mg/kg/day, the LOAEL (rabbit [5]; [14]) was greater than 40 mg/kg/day and the NEL (rabbit [5]; [14]) was 12.5 mg/kg/day. The NOAEL (rabbit [5]; [14]) was no less than 40 mg/kg/day, the LEL (rabbit [6]; [15]) was 50 mg/kg/day and the LOAEL (rabbit [6]; [15]) was greater than 100 mg/kg/day. The NEL (rabbit [6]; [15]) was less than 50 mg/kg/day, the NOAEL (rabbit [6]; [15]) was no less than 100 mg/kg/day and the LOAEL (rabbit [6]; [16]) was greater than 100 mg/kg/day. It also gave an NOAEL (rabbit [6]; [16]) of no less than 100 mg/kg/day, an LEL (rabbit [6]; [17]) of 50 mg/kg/day and an NEL (rabbit [6]; [17]) of less than 50 mg/kg/day.

In the case of `Cc1ccc(NC(N)=O)cc1` [p-Tolylurea], the LEL (mouse) was 300 mg/kg/day, the LOAEL (mouse) was greater than 300 mg/kg/day and the NEL (mouse) was less than 300 mg/kg/day. For the same compound, the NOAEL (mouse) was no less than 300 mg/kg/day, the LEL (rat [7]) was 100 mg/kg/day and the LOAEL (rat [7]) was greater than 100 mg/kg/day. It also gave an NEL (rat [7]) of less than 100 mg/kg/day and an NOAEL (rat [7]) of no less than 100 mg/kg/day.
